# Source: patent CN101879305A, “血清胸腺因子在制备抗肿瘤药物、肿瘤物理及化学治疗药物的保护药物方面的用途” (priority 2007, dated 2010)
# Ends that are not written are not given here.
# What was measured:
# [1] = Immune indicators in Co60-irradiated mice (white cell count, carbon clearance, organ indices) (Example 8); type: in vivo, 昆明鼠; details: 650 rad Co60, after one week
# Walker-256瘤 = test: Anti-tumour test, Walker-256 tumour in rats (Example 3); type: in vivo, Wistar大鼠; details: positive control 环磷酰胺 89.2mg.kg-1, single dose
# H22实体瘤 = test: Anti-tumour test, H22 solid tumour in mice (Example 2); type: in vivo, 昆明小鼠; details: positive control 环磷酰胺 20mg·kg-1, single dose
# 人肝癌Heps瘤 = test: Anti-tumour test, human liver cancer Heps xenograft in nude mice (Example 4); type: in vivo, 裸鼠; details: positive control 环磷酰胺 10mg·kg-1, single dose
# [2] = Acute toxicity, single tail-vein injection, 7-day observation (Example 7); type: in vivo, 昆明小鼠; details: for 死亡(%): 20 mice, 7 days; for 给药前体重: before dosing (baseline)
# EAC腹水瘤 = test: Anti-tumour test, EAC ascites tumour in mice (Example 1); type: in vivo, 昆明小鼠; details: positive control 5-氟尿嘧啶 25mg·kg-1, every other day, three times
compound,measurement,setting,value
C#C[C@]1(O)[C@H](O)C[C@H]2[C@@H]3CCc4cc(OC5CCCC5)ccc4[C@H]3CC[C@@]21C [尼尔雌醇],体重增加,[1]; positive control 尼尔雌醇 0.05mg/只 single gavage,3.47
same,吞噬指数α,[1]; 尼尔雌醇 0.05mg/只 single gavage,6.00
same,廓清指数K,[1]; 尼尔雌醇 0.05mg/只 single gavage,0.033
same,白细胞个数(个/mm3),[1]; 尼尔雌醇 0.05mg/只 single gavage,2693 个/mm3
same,胸腺指数(mg/10g),[1]; 尼尔雌醇 0.05mg/只 single gavage,28.32 mg/10g
same,脾指数(mg/10g),[1]; 尼尔雌醇 0.05mg/只 single gavage,8.96 mg/10g
C#C[C@]1(O)[C@H](O)C[C@H]2[C@@H]3CCc4cc(OC5CCCC5)ccc4[C@H]3CC[C@@]21C [环磷酰胺],肿瘤的重量,Walker-256瘤,2.6 ± 1.7 g
same,抑瘤率(%),Walker-256瘤; vs blank group,85.4 %
same,实体瘤的重量,H22实体瘤,0.6 ± 0.5 g
same,抑瘤率,H22实体瘤; vs blank group,84.8 %
same,抑瘤率,人肝癌Heps瘤,62.43 %
same,肿瘤的体积(mm3),人肝癌Heps瘤,99.73±68.60 mm3
same,肿瘤的重量,人肝癌Heps瘤,0.57 ± 0.12 g
"EAKSQGGSN [FTS, Glu-Ala-Lys-Ser-Gln-Gly-Gly-Ser-Asn]",死亡(%),[2]; 5.0 mg/kg (0.5 mg/ml) i.v. tail vein once,0 %
same,给药前体重,[2]; 5.0 mg/kg group,22.3 ± 2.1 g
same,死亡(%),[2]; 10.0 mg/kg (1.0 mg/ml) i.v. tail vein once,0 %
same,给药前体重,[2]; 10.0 mg/kg group,23.4 ± 3.1 g
same,死亡(%),[2]; 50.0 mg/kg (5.0 mg/ml) i.v. tail vein once,0 %
same,给药前体重,[2]; 50.0 mg/kg group,23.6 ± 2.5 g
same,死亡(%),[2]; 100.0 mg/kg (10.0 mg/ml) i.v. tail vein once,0 %
same,给药前体重,[2]; 100.0 mg/kg group,23.1 ± 2.8 g
same,毒性反应或死亡,"[2]; 5.0, 10.0, 50.0 and 100.0 mg/kg groups, i.v.",未发现任何毒性反应或死亡
O=c1[nH]cc(F)c(=O)[nH]1 [5-氟尿嘧啶],生存时间(天),EAC腹水瘤,24.3±4.1 天
same,生命延长率,EAC腹水瘤; vs blank group,82.7 %
